PMC11791213, “Elucidating ligand interactions and small-molecule activation in the pyrrolnitrin biosynthetic enzyme PrnB” (The Journal of Biological Chemistry, 2024)
pKd: −log10 of the molar value.

Key:
[1] = molecular target: T1, PsPrnB; assay: UV-visible absorption titration of the ferric enzyme; EPR; resonance Raman; format: binding, Pseudomonas sp. ADAK18
T1 construct: gene prnB; N-terminal His6-tag (TEV-cleavable)

[2] = molecular target: T2, FbPrnB (Flavobacteriales bacterium, UniProt A0AC62AEF3); assay: X-ray crystal structure of the binary complex; format: binding
T2 construct: N-terminal His-tag
T2 sequence (A0AC62AEF3 1-350): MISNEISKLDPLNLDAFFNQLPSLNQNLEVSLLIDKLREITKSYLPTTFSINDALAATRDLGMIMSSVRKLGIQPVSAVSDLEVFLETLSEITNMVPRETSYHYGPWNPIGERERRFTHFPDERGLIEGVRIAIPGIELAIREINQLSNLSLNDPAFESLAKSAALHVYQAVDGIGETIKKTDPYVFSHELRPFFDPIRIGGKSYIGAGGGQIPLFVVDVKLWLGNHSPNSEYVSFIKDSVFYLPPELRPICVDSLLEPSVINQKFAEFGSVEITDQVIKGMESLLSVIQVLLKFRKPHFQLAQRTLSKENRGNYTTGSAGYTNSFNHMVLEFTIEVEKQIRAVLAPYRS

[3] = molecular target: T1, PsPrnB; assay: UV-visible absorption titration of the ferric enzyme; resonance Raman; format: binding, Pseudomonas sp. ADAK18
[4] = molecular target: T2, FbPrnB; assay: X-ray crystal structure of the binary complex ([…] and […] occupancy); format: binding
[5] = molecular target: T2, FbPrnB; assay: X-ray crystal structure of the binary complex; UV-visible; resonance Raman; format: binding

Row | SMILES | pKd [1] | X-ray crystal structure of the binary complex [2] | pKd [3] | X-ray crystal structure of the binary complex (75% and 90% occupancy) [4] | X-ray crystal structure of the binary complex; UV-visible; resonance Raman [5]
1 | O=C(O)CCc1c[nH]c2ccccc12 [IDPA, 3-indolepropionic acid] | 5.04 | The structure of the IDPA-bound complex aligns well with our spectroscopic data, confirming that IDPA does not directly interact with the iron | – | – | –
2 | N[C@@H](Cc1c[nH]c2c(Cl)cccc12)C(=O)O [7-Cl-Trp, 7-chloro-L-tryptophan] | – | binding conformations of 7-Cl-Trp and Trp are nearly identical (Fig. S7A), with the amino group directly coordinating to the iron center | 5.72 | – | –
3 | NCCc1c[nH]c2ccccc12 [TAM, tryptamine] | 3.39 | – | – | The amine tail is flexible and adopts two distinct conformations in Chain A (Fig. 5D), with one remaining in coordination | –
4 | N[C@@H](Cc1c[nH]c2ccccc12)C(=O)O [Trp, L-tryptophan] | 5.39 | – | – | – | binding conformations of 7-Cl-Trp and Trp are nearly identical (Fig. S7A), with the amino group directly coordinating to the iron center
